Results as given in PubChem BioAssay AID2060904 (Molecular Pharmacology Branch, DTP, NCI, 2025).

Test system: 349418-098-R-PDC complex spheroid viability
Assay: Anticancer human tumor 349418-098-R-PDC patient-derived lung adenocarcinoma cell line growth inhibition [RAS]
Conditions: for IC50: curve of first compound; for viability, T/C: stronger effect = lower value
Source text: RAS pathway inhibitors in Combinations in Complex Spheroids
A high-throughput screen of multi-cell type tumor spheroids was designed to identify active combinations of RAS pathway inhibitors and targeted small molecules. Complex spheroids include a stromal component modeled by human endothelial cells (HUVEC) and fibroblasts modeled by human mesenchymal stem cells (MSCs). The concentration ranges selected for each drug and investigational agent were based upon clinically achievable concentrations if the clinical Cmax of the agent was known.
Compounds. The drugs and investigational agents: abemaciclib (NSC768073), cobimetinib (NSC768068), divarasib (GDC6063, NSC841802), docetaxel (NSC628503), GDC-1971 (RLY-1971, NSC841576), gemcitabine (NSC613327), inavolisib (NSC800729), ipatasertib (NSC767898), KB-0742 (NSC834161), MRTX-1133 (NSC836407), osimertinib (NSC779217), RMC-4630 (NSC839698), RMC-6236 (NSC851965), RMC-6291 (NSC852671), Ro-3306 (NSC812927), sapanisertib (NSC764658), SN-38 (NSC673596), staurosporine (NSC755774), SY5609 (NSC837396), and tovorafenib (DAY101, NSC766906), were obtained from the National Cancer Institute (NCI) Developmental Therapeutics Program Chemical Repository. The FDA-approved anticancer drug set is available from the NCI Developmental Therapeutics Program. […] The stock solutions were prepared in dimethyl sulfoxide (DMSO, Sigma-Aldrich, St. Louis, MO, cat. D2650) at 800-fold the tested concentration and stored at -70 degrees C prior to their use. All drugs and investigational agents were tested over a range starting from a high concentration at or near the clinical Cmax and decreasing in half-log increments. If the clinical Cmax for an agent had not been determined, the highest concentration tested was 10 microM.
Cell Culture. All cells were maintained in an incubator at 37 degrees C and 5% CO2 with 95% humidity. The PDC lines were cultured according to standard operating procedures established by the NCI PDMR. All PDCs were thawed and cultured in Matrigel-coated flasks prepared with a working solution of 1X Ham's F-12 nutrient mix, without supplementation (Invitrogen, Waltham, MA, cat. 11765054), 100 U/mL penicillin-streptomycin (Invitrogen, cat. 15140122), and 2.5% Matrigel (Corning Inc., Corning, NY, cat. 354248) for the first three passages. The 362531-283-R-J2-PDC and 782815-120-R-J1-PDC lines were cultured in 6C/Colon 1B media, which includes advanced DMEM/F-12 (Thermo Fisher Scientific, cat. 12634028), 10 mM HEPES (Thermo Fisher Scientific, cat. 15630080), 1X GlutaMAX supplement (Thermo Fisher Scientific, cat. 35050061), 0.1 mg/mL primocin (InvivoGen, San Diego, CA, cat. ant-pm-2), 10% defined fetal bovine serum, heat inactivated (HyClone Laboratories Inc., Logan, UT, cat. SH30070.03HI), 50% L-WRN conditioned media (ATCC, cat. CRL-3276), 1.25 mM N-Acetyl-L-cysteine (Sigma-Aldrich, cat. A9165), 10 mM nicotinamide (Sigma-Aldrich, cat. N0636), 1X B-27 supplement (Thermo Fisher Scientific, cat. 17504044), 1X N-2 supplement (Thermo Fisher Scientific, cat. 17502048), 50 ng/mL human EGF (Thermo Fisher Scientific, cat. PHG0311), and 10 microM Y-27632 dihydrochloride (Tocris Bioscience, cat. 1254). The K12877-001-R-J1-PDC line was cultured in 6I media, which includes all 6C/Colon 1B media plus 10 ng/mL human FGF-10 (PeproTech, cat. 100-26), 1 ng/mL human FGF-2 (PeproTech, cat. 100-18B), 1 µM prostaglandin E2 (Tocris Bioscience, cat. 2296), […] hydrocortisone (Sigma-Aldrich, cat. H4001), and […] bovine insulin (Sigma-Aldrich, cat. I6634). The K86415-001-R-J1-PDC line was cultured in 6D media, which includes all 6C/Colon 1B media components minus the L-WRN conditioned media. The 485176-168-R4-J1-PDC was cultured in PANC media, which includes all 6C/Colon 1B media plus 100 ng/mL human FGF-10 (PeproTech, cat. 100-26), 500 nM SB-431542 (Selleckchem, cat. S1067), and 10 nM gastrin (Tocris Bioscience, cat. 3006). […]

[1] = second compound 0.0316 µM, first compound 0.0316 µM
[2] = second compound 0.0316 µM, first compound 0.1 µM
[3] = second compound 0.0316 µM, first compound 0.316 µM
[4] = second compound 0.0316 µM, first compound 1 µM
[5] = second compound 0.0316 µM, first compound 3.16 µM
[6] = second compound 0.0316 µM, first compound 10 µM
[7] = second compound 0.1 µM, first compound 0.0316 µM
[8] = second compound 0.1 µM, first compound 0.1 µM
[9] = second compound 0.1 µM, first compound 0.316 µM
[10] = second compound 0.1 µM, first compound 1 µM
[11] = second compound 0.1 µM, first compound 3.16 µM
[12] = second compound 0.1 µM, first compound 10 µM
[13] = second compound 0.316 µM, first compound 0.0316 µM
[14] = second compound 0.316 µM, first compound 0.1 µM
[15] = second compound 0.316 µM, first compound 0.316 µM
[16] = second compound 0.316 µM, first compound 1 µM
[17] = second compound 0.316 µM, first compound 3.16 µM
[18] = second compound 0.316 µM, first compound 10 µM
[19] = second compound 1 µM, first compound 0.0316 µM
[20] = second compound 1 µM, first compound 0.1 µM
[21] = second compound 1 µM, first compound 0.316 µM
[22] = second compound 1 µM, first compound 1 µM
[23] = second compound 1 µM, first compound 3.16 µM
[24] = second compound 1 µM, first compound 10 µM
[25] = second compound 3.16 µM, first compound 0.0316 µM
[26] = second compound 3.16 µM, first compound 0.1 µM
[27] = second compound 3.16 µM, first compound 0.316 µM
[28] = second compound 3.16 µM, first compound 1 µM
[29] = second compound 3.16 µM, first compound 3.16 µM
[30] = second compound 3.16 µM, first compound 10 µM
[31] = second compound 10 µM, first compound 0.0316 µM
[32] = second compound 10 µM, first compound 0.1 µM
[33] = second compound 10 µM, first compound 0.316 µM
[34] = second compound 10 µM, first compound 1 µM
[35] = second compound 10 µM, first compound 3.16 µM
[36] = second compound 10 µM, first compound 10 µM
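Further: spheroids exposed to compound for seven days before viability readout.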

## CC(C)NCC(C(=O)N1CCN(c2ncnc3c2C(C)CC3O)CC1)c1ccc(Cl)cc1 (centres undefined) + C#Cc1c(F)ccc2cc(O)cc(-c3ncc4c(N5CC6CCC(C5)N6)nc(OCC56CCCN5CC(F)C6)nc4c3F)c12
Second compound 0.0316 µM
  IC50: 342 nM
Second compound 0.1 µM
  IC50: 572 nM
Second compound 0.316 µM
  IC50: 186 nM
Second compound 1 µM
  IC50: 347 nM
Second compound 3.16 µM
  IC50: 519 nM
Second compound 10 µM
  IC50: 35 nM
[1]
  viability, T/C: 84%
[2]
  viability, T/C: 59.1%
[3]
  viability, T/C: 60.1%
[4]
  viability, T/C: 29.7%
[5]
  viability, T/C: 25.2%
[6]
  viability, T/C: 9.07%
[7]
  viability, T/C: 62.7%
[8]
  viability, T/C: 78.9%
[9]
  viability, T/C: 68.8%
[10]
  viability, T/C: 32.4%
[11]
  viability, T/C: 20.9%
[12]
  viability, T/C: 11.5%
[13]
  viability, T/C: 72.6%
[14]
  viability, T/C: 46.6%
[15]
  viability, T/C: 51.7%
[16]
  viability, T/C: 31.1%
[17]
  viability, T/C: 21.5%
[18]
  viability, T/C: 8.74%
[19]
  viability, T/C: 75%
[20]
  viability, T/C: 54.8%
[21]
  viability, T/C: 62.9%
[22]
  viability, T/C: 28.8%
[23]
  viability, T/C: 27.3%
[24]
  viability, T/C: 7.4%
[25]
  viability, T/C: 61.9%
[26]
  viability, T/C: 75.1%
[27]
  viability, T/C: 55.1%
[28]
  viability, T/C: 39.2%
[29]
  viability, T/C: 19.7%
[30]
  viability, T/C: 10.7%
[31]
  viability, T/C: 60.7%
[32]
  viability, T/C: 26.3%
[33]
  viability, T/C: 28.1%
[34]
  viability, T/C: 47.3%
[35]
  viability, T/C: 16.9%
[36]
  viability, T/C: 3.22%

## CC(Nc1ccc2c(c1)OCCn1cc(N3C(=O)OCC3C(F)F)nc1-2)C(N)=O (centres undefined) + C#Cc1c(F)ccc2cc(O)cc(-c3ncc4c(N5CC6CCC(C5)N6)nc(OCC56CCCN5CC(F)C6)nc4c3F)c12
Second compound 0.0316 µM
  IC50: 90 nM
Second compound 0.1 µM
  IC50: 91.7 nM
Second compound 0.316 µM
  IC50: 70 nM
Second compound 1 µM
  IC50: 44.2 nM
Second compound 3.16 µM
  IC50: 71 nM
Second compound 10 µM
  IC50: < 31.6 nM
[1]
  viability, T/C: 78.3%
[2]
  viability, T/C: 43.2%
[3]
  viability, T/C: 37.1%
[4]
  viability, T/C: 11.6%
[5]
  viability, T/C: 11.7%
[6]
  viability, T/C: 11.8%
[7]
  viability, T/C: 80.4%
[8]
  viability, T/C: 39.4%
[9]
  viability, T/C: 39.1%
[10]
  viability, T/C: 19.9%
[11]
  viability, T/C: 12.7%
[12]
  viability, T/C: 11.2%
[13]
  viability, T/C: 71%
[14]
  viability, T/C: 39.7%
[15]
  viability, T/C: 26.8%
[16]
  viability, T/C: 16.9%
[17]
  viability, T/C: 15.3%
[18]
  viability, T/C: 13.7%
[19]
  viability, T/C: 51.8%
[20]
  viability, T/C: 45.9%
[21]
  viability, T/C: 25.5%
[22]
  viability, T/C: 12.4%
[23]
  viability, T/C: 16.2%
[24]
  viability, T/C: 10.6%
[25]
  viability, T/C: 63.5%
[26]
  viability, T/C: 42.7%
[27]
  viability, T/C: 30.5%
[28]
  viability, T/C: 12.9%
[29]
  viability, T/C: 12.8%
[30]
  viability, T/C: 13.5%
[31]
  viability, T/C: 35.9%
[32]
  viability, T/C: 28.3%
[33]
  viability, T/C: 9.51%
[34]
  viability, T/C: 4.69%
[35]
  viability, T/C: 5.91%
[36]
  viability, T/C: 2.82%
